Assay results as given in patent US20070275382A1, “Biomarkers for the Efficacy of Somatostatin Analogue Treatment” (priority 2003, published 2007).
Several values for one entry are separate records, joined by “and”; a condition that tells them apart may be missing. Identical values can stand only once. *1 amine or outer side, *2 acyl side, *3 side chain or, on linkers, in order; H or OH if unused. Where a SMILES comes first, the peptide text is derived from it. Side-chain parts run from the residue outwards. [ ]: non-standard residue; d: D form. The star is where a group is joined. Ethylenediamine = C(CN[*:2])N[*:1]; Hyp = O=C(O)[CH]1C[CH](O)CN1; Phg = N[CH](C(=O)O)c1ccccc1; CO = O=C([*:1])[*:2]; Bn = c1ccc(C*)cc1

Test system: Pituitary gland
Test: Microarray gene expression profiling (HG-U95A), pituitary
Format: in vivo, cynomolgus monkeys
Description: Origin of tissue and processing. Male and female cynomolgus monkeys received subcutaneously pasireotide (100 μg/animal/day) or the vehicle for 14 days. On day 15, all animals were sacrificed and tissues for RNA extraction were immediately snap-frozen and kept at −80° C. until processing.
RNA expression profiling was conducted by means of the HG-U95A gene expression probe array (Affymetrix; Santa Clara, Calif. USA), containing more than 12,600 probe sets interrogating primarily full-length human genes and also some control probe sets. The experiment was conducted according to the recommendations of the manufacturer. Briefly, total RNA was obtained by acid guanidinium thiocyanate-phenol-chloroform extraction (Trizol®, Invitrogen Life Technologies, San Diego, Calif. USA) from each frozen tissue section. The total RNA was then purified on an affinity resin (Rneasy®, Qiagen) and quantified. Double stranded cDNA was synthesized with a starting amount of approximately 5 μg full-length total RNA using the Superscript® Choice System (Invitrogen Life Technologies, Carlsbad, Calif. USA) in the presence of a T7-(dT)24 DNA oligonucleotide primer. Following synthesis, the cDNA was purified by phenol/chloroform/isoamyl alcohol extraction and ethanol precipitation. The purified cDNA was then transcribed in vitro using the BioArray® High Yield RNA Transcript Labeling Kit (ENZO, Farmingdale, N.Y. USA) in the presence of biotinylated ribonucleotides form biotin labelled cRNA. The labelled cRNA was then purified on an affinity resin (Rneasy®, Qiagen), quantified and fragmented. An amount of approximately 10 μg labelled cRNA was hybridized for 16 hours at 45° C. to an expression probe array. The array was then washed and stained twice with streptavidin-phycoerythrin (Molecular Probes,) using the GeneChip® Fluidics Workstation 400 (Affymetrix, Santa Clara, Calif. USA). The array was then scanned twice using a confocal laser scanner (GeneArray® Scanner, Agilent, Palo Alto, Calif. USA) resulting in one scanned image. This resulting “.dat-file” was processed using the MAS4 program (Affymetrix) into a “.cel-file”. The “.cel file” was captured and loaded into the Affymetrix GeneChip® Laboratory Information Management System (LIMS). The LIMS database is connected to a UNIX Sun Solaris server through a network filing system that allows for the average intensities for all probes cells (CEL file) to be downloaded into an Oracle database (NPGN). Raw data was converted to expression levels using a “target intensity” of 150. The data were evaluated for quality control and loaded in the GeneSpring® software 4.2.4 (Silicon Genetics, Calif. USA) for analysis.
On the human Affymetrix HGU95Av2 chip, probe sets for individual genes contain 20 oligonucleotide pairs, each composed of a “perfect match” 25-mer and a “mismatch” 25-mer differing from the “perfect” match oligonucleotide at a single base. After probe labelling, hybridization, and laser scanning, the expression level was estimated by averaging the differences in signal intensity measured by oligonucleotide pairs of a given probe (AvgDiff value). The fold changes and directions were calculated for selected genes, from the differences of the AvgDiff values between controls and treated.
To identify genes that were impacted by pasireotide, the dataset was initially filtered to exclude in a first wave of analysis, genes whose values were systematically in the lower expression ranges where the experimental noise is high (at least 80 in a number of experiments corresponding to the smallest number of replicas of any experimental point). In a second round of selection a threshold p-value of 0.05 (based on a t-test) identified differences between treated and control based on a two component error model (Global Error Model) and, whenever possible, with a stepdown correction for multi-hypothesis testing (Benjamini and Hochberg false discovery rate). […]

[1] = ↑ vs control, 100 μg/animal/day s.c., 14 days
[2] = ↓ vs control, 100 μg/animal/day s.c., 14 days

## NCCCCC1NC(=O)C(Cc2c[nH]c3ccccc23)NC(=O)C(c2ccccc2)NC(=O)C2CC(OC(=O)NCCN)CN2C(=O)C(Cc2ccccc2)NC(=O)C(Cc2ccc(OCc3ccccc3)cc2)NC1=O (stereo not drawn) [Pasireotide, cyclo[4-(NH2—C2H4—NH—CO—O)Pro-Phg-DTrp-Lys-Tyr(4-Bzl)-Phe]] (cyclo(F[Hyp]([CO-Ethylenediamine])[Phg]WKY(Bn)); configuration not given here)
0.1 mg/animal/14 day
  ATPase, H+/K+ exchanging, α polypeptide expression level, AvgDiff (range): 20
  ATPase, Na+/K+ transporting, α 2 (+) polypeptide expression level, AvgDiff (range): 184 (69 to 325)
  ATPase, Na+/K+ transporting, β 3 polypeptide expression level, AvgDiff (range): 610 (335 to 949)
  BCL2-antagonist of cell death expression level, AvgDiff (range): 69 (42 to 89)
  BCL2-associated athanogene expression level, AvgDiff (range): 318 (235 to 409)
  Bax gamma expression level, AvgDiff (range): 326 (221 to 448)
  Cdk inhibitor 2C (p18, inhibits CDK4) expression level, AvgDiff (range): 184 (140 to 229)
  Cdk inhibitor 2D (p19, inhibits CDK4) expression level, AvgDiff (range): 99 (83 to 118)
  Cell division cycle 25B expression level, AvgDiff (range): 162 (134 to 187)
  Core-binding factor, runt domain, α subunit 2; translocated to, 1; cyclin D-related expression level, AvgDiff (range): 491 (251 to 677)
  Cyclin D3 expression level, AvgDiff (range): 338 (202 to 446)
  Cyclin F expression level, AvgDiff (range): 74 (48 to 132)
  Dual specificity phosphatase 8 expression level, AvgDiff (range): 170 (67 to 238)
  Forkhead box O3A expression level, AvgDiff (range): 257 (186 to 324)
  GLUR 2, precursor expression level, AvgDiff (range): 59 (20 to 177)
  GR expression level, AvgDiff (range): 109 (51 to 215)
  IGF-2 expression level, AvgDiff (range): 70 (20 to 150)
  IGFBP, acid labile subunit expression level, AvgDiff (range): 83 (20 to 110)
  IP-4-phosphatase, type 1, isoform b expression level, AvgDiff (range): 177 (107 to 232)
  K+ channel, subfamily K, member 3 (TASK) expression level, AvgDiff (range): 26 (20 to 43)
  K+ voltage-gated channel, Shab-related subfamily, member 1 expression level, AvgDiff (range): 22 (20 to 31)
  MAPKKK5 expression level, AvgDiff (range): 278 (221 to 351)
  Neuroblastoma-amplified protein expression level, AvgDiff (range): 237 (201 to 258)
  PI transfer protein, β expression level, AvgDiff (range): 42 (34 to 50)
  PI-3-kinase, catalytic, α polypeptide expression level, AvgDiff (range): 21 (20 to 24)
  PI-3-kinase, catalytic, δ polypeptide expression level, AvgDiff (range): 34 (20 to 67)
  PKC inhibitor expression level, AvgDiff (range): 3,333 (2,339 to 3,878) and 3,332 (2,339 to 3,878)
  PLC, γ 1 (formerly subtype 148) expression level, AvgDiff (range): 40 (20 to 63)
  PP 1, regulatory (inhibitor) subunit 5 expression level, AvgDiff (range): 75 (60 to 90)
  PTP, receptor type, T expression level, AvgDiff (range): 101 (48 to 129)
  Phosphatase and tensin homolog (mutated in multiple advanced cancers 1) expression level, AvgDiff (range): 36 (20 to 63)
  Programmed cell death 6 expression level, AvgDiff (range): 635 (513 to 747)
  Putative Ca++ transporting ATPase expression level, AvgDiff (range): 101 (84 to 112)
  RAB 5C, member RAS oncogene family expression level, AvgDiff (range): 162 (109 to 212)
  Rab geranylgeranyltransferase, α subunit expression level, AvgDiff (range): 104 (70 to 172)
  Rab geranylgeranyltransferase, βsubunit expression level, AvgDiff (range): 284 (246 to 374)
  S-phase response (cyclin-related) expression level, AvgDiff (range): 129 (111 to 148)
  SHB adaptor protein (a Src homology 2 protein) expression level, AvgDiff (range): 38 (20 to 55)
  SSTR3 expression level, AvgDiff (range): 57 (20 to 90)
[1]
  ANP (atrial natriuretic peptide precursor B) transcript fold change: ↑ x2
  ATP(GTP)-binding protein transcript fold change: protein ↑ x1.5
  ATPase, Ca++ transporting cardiac muscle, slow twitch 2 transcript fold change: ↑ x1.5
  ATPase, Na+/K+ transporting, α 2(+) polypeptide transcript fold change: polypeptide ↑ x2.5
  ATPase, Na+/K+ transporting, β 3 polypeptide transcript fold change: polypeptide ↑ x2.5
  Adrenomedullin transcript fold change: Adrenomedullin ↑ x2.5
  BCL2-antagonist of cell death transcript fold change: cell death ↑ x2
  BCL2-associated athanogene transcript fold change: athanogene ↑ x2
  BCL2/adenovirus E1B 19 kD-interacting protein 3 transcript fold change: 3 ↑ x1.5
  Bax γ transcript fold change: Bax γ ↑ x1.5
  Brain cannabinoid receptor 1 transcript fold change: receptor 1 ↑ x2
  Butyrate response factor 2 (EGF-response factor 2) transcript fold change: factor 2) ↑ x3
  CC chemokines STCP-1 transcript fold change: STCP-1 ↑ x1.5
  Calcium/calmodulin-dependent protein kinase I transcript fold change: kinase I ↑ x2.5
  Cdki2C (p18, inhibits CDK4) transcript fold change: CDK4) ↑ x2
  Cdki2D (p19, inhibits CDK4) transcript fold change: CDK4) ↑ x1.5
  Cell division cycle 25B transcript fold change: ↑ x5
  Core-binding factor, runt domain, α subunit 2; translocated to, 1; cyclin D-related transcript fold change: cyclin D-related ↑ x3
  Cyclin D3 transcript fold change: Cyclin D3 ↑ x2.5
  Forkhead box H1 transcript fold change: Forkhead box H1↑ x2
  G protein-coupled receptor, family C, group 5, member B transcript fold change: group 5, member B ↑ x2
  G-protein coupled receptor 9 transcript fold change: receptor 9 ↑ x2.5
  GABA-B R 1, isoform a precursor transcript fold change: ↑ x1.5
  GFR bound protein 10 transcript fold change: ↑ x1.5
  GLUR 2, precursor transcript fold change: ↑ x1.5
  GTP-binding protein 11 transcript fold change: 11 ↑ x2.5
  Glucagon receptor transcript fold change: ↑ x7
  IFN stimulated gene transcript fold change: ↑ x3.5
  IFNγ-inducible protein 30 (IP30) transcript fold change: 30 (IP30) ↑ x1.5
  IGFBP, acid labile subunit transcript fold change: subunit ↑ x3.5
  IP3 receptor, type 1 transcript fold change: ↑ x1.5
  JAK 1 transcript fold change: JAK 1 ↑ x2
  MAPKKK5 transcript fold change: MAPKKK5 ↑ x2
  Neuroblastoma-amplified protein transcript fold change: ↑ x1.5
  PKC inhibitor transcript fold change: PKC inhibitor ↑ x2
  PP 1, regulatory (inhibitor) subunit 5 transcript fold change: ↑ x3.5
  PTP, receptor type, T transcript fold change: ↑ x2
  Programmed cell death 6 transcript fold change: death 6 ↑ x1.5
  Putative Ca++ transporting ATPase transcript fold change: ↑ x2
  RAB 5C, member RAS oncogene family transcript fold change: ↑ x3
  Rab geranyltransferase, β subunit transcript fold change: β subunit ↑ x2
  Receptor (calcitonin) activity modifying protein 2 precursor transcript fold change: x3.5
  Receptor tyrosine kinase-like orphan receptor 2 transcript fold change: receptor 2 ↑ x2
  Regulator of G-protein signalling 9 transcript fold change: ↑ x2
  S-phase response (cyclin-related) transcript fold change: (cyclin-related) ↑ x2
  SSTR3 transcript fold change: SSTR3 ↑ x3
  Thyroid transcription factor 1 transcript fold change: factor 1 ↑ x2.5
  VEGF B transcript fold change: VEGF B ↑ x1.5
[2]
  1-PI-4-phosphate 5-kinase isoform C transcript fold change: kinase isoform C ↓ x1.5
  ATPase, H+/K+ exchanging, α polypeptide transcript fold change: polypeptide ↓ x5
  Arg PTK-binding protein transcript fold change: protein ↓ x2.5
  CD36 antigen transcript fold change: CD36 antigen ↓ x2
  Catenin (cadherin-associated protein), α 1 (102 kD) transcript fold change: α 1 (102 kD) ↓ x1.5
  Cholecystokinin receptor transcript fold change: receptor ↓ x4.5
  Cholinergic receptor, muscarinic 3 transcript fold change: muscarinic 3 ↓ x3
  Cholinergic receptor, nicotinic, β polypeptide 4 transcript fold change: 4 ↓ x2
  Cyclin F transcript fold change: Cyclin F ↓ x2
  Dual specificity phosphatase 8 transcript fold change: phosphatase 8 ↓ x3
  EGFRBP 2 transcript fold change: EGFRBP 2 ↓ x1.5
  FGFR 2 transcript fold change: FGFR 2 ↓ x2
  Fms-related tyrosine kinase 1 (VEGF/vascular permeability factor receptor) transcript fold change: receptor) ↓ x1.5
  Forkhead box O3A transcript fold change: ↓ x1.5
  G-protein coupled receptor 49 transcript fold change: receptor 49 ↓ x2
  GTP-binding protein (G protein), q polypeptide transcript fold change: ↓ x2.5
  GTP-binding protein like-1 transcript fold change: like-1 ↓ x3
  Gastrin receptor transcript fold change: Gastrin receptor ↓ x2
  IFNR2 (α, β and ω) transcript fold change: ↓ x2.5
  IGF-2 transcript fold change: IGF-2 ↓ x1.5
  IP-4-phosphatase, type 1, isoform b transcript fold change: type 1, isoform b ↓ x2
  K+ channel, subfamily K, member 3 (TASK) transcript fold change: ↓ x4
  K+ voltage-gated channel, Shab-related subfamily, member 1 transcript fold change: ↓ x2
  PDGFβ transcript fold change: PDGFβ ↓ x2
  PI transfer protein, β transcript fold change: ↓ x2.5
  PI-3-kinase, catalytic, α polypeptide transcript fold change: α polypeptide ↓ x3
  PI-3-kinase, catalytic, δ polypeptide transcript fold change: ↓ x2
  PLCγ 1 transcript fold change: PLCγ 1 ↓ x1.5
  Phosphatase and tensin homolog (mutated in multiple advanced cancers 1) transcript fold change: ↓ x3.5
  Rab3 GTPase-activating protein, non catalytic subunit transcript fold change: catalytic subunit ↓ x2
  Rab geranylgeranyl transferase, α subunit transcript fold change: ↓ x1.5
  SHB adaptor protein (a Src homology 2 protein) transcript fold change: ↓ x2.5
  STAT 1, 91kδ transcript fold change: STAT 1, 91kδ ↓ x2
  Soluble adenylyl cyclase transcript fold change: cyclase ↓ x2
  TNFR subfamily, member 14; herpesvirus entry mediator transcript fold change: entry mediator ↓ x2.5
  TNFR-associated factor 2 transcript fold change: factor 2 ↓ x4
  Thrombospondin-p50 transcript fold change: ↓ x2
